For 14 molecules, EC50 results are on record in patent US12486269B2 (Aconcagua Bio, Inc., priority 2024, dated 2025).

The EC50 is the midpoint of the concentration-response curve.

Test [1] concerns the target T1, COS-7/AMY3 (human calcitonin receptor (CTR) and RAMP3) (Homo sapiens, UniProt O60896+P30988).
T1 construct: expressed in transfected cells; host or cells: COS-7
The experiment in a line: Amylin Receptor cAMP Assay II. In kind it is cell-based. The note with it: values marked **: Amylin Receptor cAMP Assay II; COS-7/AMY3 cells, cAMP dynamic 2 kit, 30 min; read-out: Amylin Receptor cAMP Stimulation Activity: EC50. Summed up: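 Agonist-induced cAMP was quantified by HTRF ratio at 665/615 nm and expressed as % of the window from vehicle to MAX control. Stimulation lasted 30 min at 37 °C in HBSS/20 mM HEPES/0.5 mM IBMX/0.1% casein, using stable human CTR+RAMP3 (AMY3) COS-7 cells at 2000 per well.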

In test [2] the target is T2, human calcitonin receptor (CTR) (Homo sapiens, UniProt P30988).
T2 construct: expressed in transfected cells; host or cells: COS-7 (COS7-human CTR Clone #2)
T2 sequence (P30988 25-474): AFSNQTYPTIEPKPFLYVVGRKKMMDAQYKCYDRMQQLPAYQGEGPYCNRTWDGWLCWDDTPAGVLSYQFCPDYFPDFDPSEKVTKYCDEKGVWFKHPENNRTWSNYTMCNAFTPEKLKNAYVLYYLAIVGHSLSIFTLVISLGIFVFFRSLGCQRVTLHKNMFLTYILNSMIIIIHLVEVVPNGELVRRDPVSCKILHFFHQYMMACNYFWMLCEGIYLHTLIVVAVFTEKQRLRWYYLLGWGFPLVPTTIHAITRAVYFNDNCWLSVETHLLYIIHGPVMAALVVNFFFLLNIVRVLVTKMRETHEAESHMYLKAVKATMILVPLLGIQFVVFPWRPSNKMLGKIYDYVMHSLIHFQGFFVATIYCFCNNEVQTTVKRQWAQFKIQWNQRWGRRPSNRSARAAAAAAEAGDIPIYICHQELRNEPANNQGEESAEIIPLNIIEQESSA
The experiment in a line: Calcitonin Receptor (CTR) cAMP Assay. In kind it is cell-based. Particulars: COS7-human CTR Clone #2 stable cell line, cAMP dynamic 2 kit, 30 min; read-out: Calcitonin Receptor cAMP Stimulation Activity: EC50. In outline: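 cAMP accumulation was measured by HTRF cAMP dynamic 2 read at 665/615 nm, 1 h at room temperature, with results scaled between vehicle and positive control. Before detection, COS7-human CTR stable cells were stimulated 30 min at 37 °C with compound (4-fold dilutions) in IBMX-containing HBSS/HEPES/casein buffer.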

Molecules are shown by their SMILES.

T1 sequence (O60896 24-148, one chain of several): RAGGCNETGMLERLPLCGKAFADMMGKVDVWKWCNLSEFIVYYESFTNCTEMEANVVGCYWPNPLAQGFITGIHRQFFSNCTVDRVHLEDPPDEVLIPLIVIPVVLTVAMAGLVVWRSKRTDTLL

With `COc1ccc(CCc2nc3c(c(-c4cc5ccnc(N[C@@H]6CCc7c(OC)cccc76)c5s4)c2-c2n[nH]c(=O)o2)C(=O)N2CCC[C@@H]32)cc1F` [Compound 244, 5-((S)-2-(3-fluoro-4-methoxyphenethyl)-4-(7-(((R)-4-methoxy-2,3-dihydro-1H-inden-1-yl)amino)thieno[2,3-c]pyridin-2-yl)-5-oxo-7,8,9,9a-tetrahydro-5H-pyrido[2,3-a]pyrrolizin-3-yl)-1,3,4-oxadiazol-2(3H)-one], the half-maximal effective concentration (EC50) is 22.7 nM in test [1] and 1.16 nM in test [2].
`COc1cccc2c1CC[C@H]2Nc1nccc2cc(-c3c4c(nc(CCc5cccc(C(F)(F)F)c5)c3-c3noc(=O)[nH]3)[C@@H]3CCCN3C4=O)sc12` [Compound 124, 3-((S)-4-(7-(((R)-4-methoxy-2,3-dihydro-1H-inden-1-yl)amino)thieno[2,3-c]pyridin-2-yl)-5-oxo-2-(3-(trifluoromethyl)phenethyl)-7,8,9,9a-tetrahydro-5H-pyrido[2,3-a]pyrrolizin-3-yl)-1,2,4-oxadiazol-5(4H)-one]: the values for the half-maximal effective concentration (EC50) in test [1] and in test [2] were 18.2 nM and 0.628 nM, respectively.
For `COc1cccc2c1CC(F)(F)[C@H]2Nc1nccc2cc(-c3c4c(nc(CCc5ccc(F)cc5)c3-c3n[nH]c(=O)o3)C35CC(CN3C4=O)C5)sc12` [Compound 281, (S)-5-(4-(7-((2,2-difluoro-4-methoxy-2,3-dihydro-1H-inden-1-yl)amino)thieno[2,3-c]pyridin-2-yl)-2-(4-fluorophenethyl)-5-oxo-5,7,8,9-tetrahydro-8,9a-methanopyrido[2,3-a]pyrrolizin-3-yl)-1,3,4-oxadiazol-2(3H)-one] the same measures were 0.733 nM and 0.239 nM.
With `COc1cc(F)cc2c1CC[C@H]2Nc1nc(C)cc2cc(-c3c4c(nc(CCc5ccc(F)cc5)c3-c3n[nH]c(=O)o3)C35CC(CN3C4=O)C5)sc12` [Compound 298, (R)-5-(4-(7-((6-fluoro-4-methoxy-2,3-dihydro-1H-inden-1-yl)amino)-5-methylthieno[2,3-c]pyridin-2-yl)-2-(4-fluorophenethyl)-5-oxo-8,9-dihydro-5H,7H-8,9a-methanopyrido[2,3-a]pyrrolizin-3-yl)-1,3,4-oxadiazol-2(3H)-one], the values for the EC50 in test [1] and in test [2] were 0.747 nM and 0.0212 nM, respectively.
For `CC(C)C1CS(=O)(=O)c2c1nc(CCC1CCOCC1)c(-c1cc(=O)[nH]o1)c2-c1cc2ccnc(N[C@@H]3CCc4ncccc43)c2s1` (stereo partly drawn) [Compound 154, 5-(7-(7-(((R)-6,7-dihydro-5H-cyclopenta[b]pyridin-5-yl)amino)thieno[2,3-c]pyridin-2-yl)-3-isopropyl-1,1-dioxido-5-(2-(tetrahydro-2H-pyran-4-yl)ethyl)-2,3-dihydrothieno[3,2-b]pyridin-6-yl)isoxazol-3(2H)-one] the same measures were 648 nM and 52.8 nM.
For `O=C1c2c(nc(CCc3ccc(F)cc3)c(-c3n[nH]c(=O)o3)c2-c2cc3ccnc(N[C@@H]4CCc5ccc(F)cc54)c3s2)[C@@H]2CCCN12` [Compound 246, 5-((S)-4-(7-(((R)-6-fluoro-2,3-dihydro-1H-inden-1-yl)amino)thieno[2,3-c]pyridin-2-yl)-2-(4-fluorophenethyl)-5-oxo-7,8,9,9a-tetrahydro-5H-pyrido[2,3-a]pyrrolizin-3-yl)-1,3,4-oxadiazol-2(3H)-one], the EC50 in test [1] came out at 6.78 nM; in test [2] it was 0.219 nM.
Take `COc1c(Cl)ccc2c1CC[C@H]2Nc1nccc2cc(-c3c4c(nc(CCc5ccc(F)cc5)c3-c3n[nH]c(=O)o3)[C@@H]3CCCN3C4=O)sc12` [Compound 173, 5—((S)-4-(7-(((R)-5-chloro-4-methoxy-2,3-dihydro-1H-inden-1-yl)amino)thieno[2,3-c]pyridin-2-yl)-2-(4-fluorophenethyl)-5-oxo-7,8,9,9a-tetrahydro-5H-pyrido[2,3-a]pyrrolizin-3-yl)-1,3,4-oxadiazol-2(3H)-one]: the EC50 in test [1] came to 16.9 nM; in test [2], 0.788 nM.
On the same counts, the results for `O=C1c2c(nc(CCC34CCC(CC3)OC4)c(-c3n[nH]c(=O)o3)c2-c2cnc3c(ccn3Cc3ccc(F)cn3)c2)[C@@H]2CCCN12` [Compound 232, (S)-5-(2-(2-(2-oxabicyclo[2.2.2]octan-4-yl)ethyl)-4-(1-((5-fluoropyridin-2-yl)methyl)-1H-pyrrolo[2,3-b]pyridin-5-yl)-5-oxo-7,8,9,9a-tetrahydro-5H-pyrido[2,3-a]pyrrolizin-3-yl)-1,3,4-oxadiazol-2(3H)-one] are 12000 nM and 412 nM.
On the same counts, the results for `COc1cccc2c1CC[C@H]2Nc1nccc2cc(-c3c4c(nc(CCc5ccn6ccnc6c5)c3-c3n[nH]c(=O)o3)[C@@H]3CCCN3C4=O)sc12` [Compound 241, 5-((S)-2-(2-(imidazo[1,2-a]pyridin-7-yl)ethyl)-4-(7-(((R)-4-methoxy-2,3-dihydro-1H-inden-1-yl)amino)thieno[2,3-c]pyridin-2-yl)-5-oxo-7,8,9,9a-tetrahydro-5H-pyrido[2,3-a]pyrrolizin-3-yl)-1,3,4-oxadiazol-2(3H)-one] are 33.5 nM and 1.72 nM.
Regarding `COc1c(F)ccc2c1C[C@@H](F)[C@H]2Nc1nccc2cc(-c3c4c(nc(CCc5ccc(F)cc5)c3-c3n[nH]c(=O)o3)[C@@H]3CCCN3C4=O)sc12` [Compound 260, 5-((S)-4-(7-(((1S,2R)-2,5-difluoro-4-methoxy-2,3-dihydro-1H-inden-1-yl)amino)thieno[2,3-c]pyridin-2-yl)-2-(4-fluorophenethyl)-5-oxo-7,8,9,9a-tetrahydro-5H-pyrido[2,3-a]pyrrolizin-3-yl)-1,3,4-oxadiazol-2(3H)-one], the concentration for a half-maximal effect (EC50) in test [1] stood at 1.24 nM; in test [2] it was 0.0529 nM.
Consider `Cc1cc2cc(-c3c4c(nc(CCc5ccc(F)cc5)c3-c3n[nH]c(=O)o3)C35CC(CN3C4=O)C5)sc2c(N[C@@H]2CCc3cc(F)c(F)cc32)n1` [Compound 255, (R)-5-(4-(7-((5,6-difluoro-2,3-dihydro-1H-inden-1-yl)amino)-5-methylthieno[2,3-c]pyridin-2-yl)-2-(4-fluorophenethyl)-5-oxo-8,9-dihydro-5H,7H-8,9a-methanopyrido[2,3-a]pyrrolizin-3-yl)-1,3,4-oxadiazol-2(3H)-one], for which the values for the concentration for a half-maximal effect (EC50) in test [1] and in test [2] were 0.318 nM and 0.0127 nM, respectively.
Turning to `COc1cccc2c1CC[C@H]2N1Cc2cc(-c3c4c(nc(CCc5ccc(F)cc5)c3-c3n[nH]c(=O)o3)C35CC(CN3C4=O)C5)ccc2C1=O` [Compound 240, (R)-5-(2-(4-fluorophenethyl)-4-(2-(4-methoxy-2,3-dihydro-1H-inden-1-yl)-1-oxoisoindolin-5-yl)-5-oxo-8,9-dihydro-5H,7H-8,9a-methanopyrido[2,3-a]pyrrolizin-3-yl)-1,3,4-oxadiazol-2(3H)-one], the EC50 in test [1] was found to be 182 nM; in test [2] it was 8.9 nM.
Consider `O=C1c2c(nc(CCc3ccc(F)cc3)c(-c3n[nH]c(=O)o3)c2-c2cc3ccnc(N[C@@H]4CCc5c(F)cc(F)cc54)c3s2)[C@@H]2CCCN12` [Compound 183, 5-((S)-4-(7-(((R)-4,6-difluoro-2,3-dihydro-1H-inden-1-yl)amino)thieno[2,3-c]pyridin-2-yl)-2-(4-fluorophenethyl)-5-oxo-7,8,9,9a-tetrahydro-5H-pyrido[2,3-a]pyrrolizin-3-yl)-1,3,4-oxadiazol-2(3H)-one], for which the half-maximal effective concentration (EC50) in test [1] turned out to be 4.23 nM; in test [2] it was 0.143 nM.
With `C[C@H](Nc1nccc2cc(-c3c4c(nc(CCc5ccc(F)cc5)c3-c3noc(=O)[nH]3)[C@@H]3CCCN3C4=O)sc12)c1ccc(F)c(F)c1` [Compound 141], the concentration giving a half-maximal response (EC50) in test [1] is 711 nM; in test [2], 88.8 nM.
